{
  "source": "patent US20230103554A1",
  "about": "“TNFa SIGNALING [sequence] TUMOR-PROMOTING INFLAMMATION THAT CAN BE TARGETED TO THERAPY” (Baylor College of Medicine, priority 2020, published 2023)",
  "type_in_all_cases": "cell-based, human",
  "key": {"sTNFα production": {"system": "sTNFα production", "assay": "NB-monocyte co-culture, TNFα ELISA of supernatant", "settings": "24 hours", "protocol": "(§1) Monocytes were directly cultured with wild-type or TNF, TNFR1, TNFR2 KO NB cell lines in ULA plates for 24 hours. Activation of NF-kB in monocytes and NB was measured by flow cytometry and cytokine production measured by ELISA from co-culture supernatant. To evaluate the contact-dependence of monocyte activation by NB, monocytes were cultured in ULA plates with seven-day NB conditioned medium mixed 1:1 with complete monocyte medium for 24 hours and analyzed for IL-6 production. To assess the growth advantage of NB cultured with monocytes, NB-luc cell lines and monocytes were seeded in tissue culture-treated white 96-well plates (1:1 ratio) and cultured for four days. Luminescence was measured using a TECAN Spark plate reader (TECAN). To evaluate changes in proliferation, NB was pulsed for 10 minutes in CellTrace Violet (2 μM, Invitrogen) and seeded at 100,000 cells per well in a 12-well tissue culture-treated plate. Monocytes were added directly to the NB monolayer at a density of 100,000 per well and incubated for four days. CellTrace Violet expression was analyzed by flow cytometry.\nCytokines released by monocytes were detected within co-culture supernatants using the Human TNF-alpha Quantikine ELISA Kit (TNFα, R&D Systems) and the Human IL-6 Quantikine ELISA Kit (IL-6, R&D Systems) according to manufacturer's guidelines. ELISA plates were read using a TECAN Spark plate reader (TECAN). Global cytokine regulation was evaluated using a custom Luminex panel containing the following cytokines: CX3CL1, CXCL10, EGF, FGF-2, Flt3L, G-CSF, GM-CSF, IL-1α, IL-1β, IL-1Ra, IL-4, IL-6, IL-8, IL-10, IL-12 (p40), IL-12 (p′70), M-CSF, MCP-1, MCP-3, MDC, MIP-1α, MIP-1β, TGFα, TNFα, TNFβ, and VEGF-A (Human Cytokine Panel A, Millipore-Sigma)."}, "[1]": {"system": "NF-κB signaling in monocytes", "assay": "Intracellular IκBα in monocyte population of co-culture (PhosFlow flow cytometry)", "settings": "10 μg/mL etanercept", "protocol": "as §1\nTo evaluate the expression of TNFα in NB and monocytes, cells were first stimulated with LPS (50 ng/mL) in the presence of GolgiStop (BD Biosciences) and fixed using CytoFix/Cytoperm buffer (BD Biosciences). Cells were then stained with TNFα-PE (BD Biosciences). To evaluate the expression of TNFR1 and TNFR2 on NB and monocytes, cells were stained with TNFR1-BV421 and TNFR2-APC (BD Biosciences) in FACS staining buffer containing 0.05% sodium azide to prevent receptor/antibody processing. To estimate changes in NF-kB expression, treated co-cultures were first stained with ZombieViolet (1 μL/test, Biolegend) to counterstain dead cells and APC-H7 CD45 and/or FITC-CD14 to label monocytes for 20 minutes at room temperature. […] All flow samples were run using an LSRII 5-laser flow cytometer (Texas Children's Hospital Cancer Center Flow Cytometry Core, Houston, Tex.) and analyzed using FlowJo Software (Treestar)."}, "CHLA-255": {"system": "CHLA-255", "assay": "CellTrace Violet proliferation of NB co-cultured with monocytes", "settings": "CHLA-255 CTV-pulsed + monocytes, 10 μg/mL etanercept, four days", "protocol": "(15A) TNFα level within co-culture supernatant was determined by TNFα ELISA. Mean TNFα concentration±SD of representative data from two monocyte donors run in triplicate. (FIG. 15B) Supernatant IL-6 levels were determined by ELISA. Mean IL-6 concentration±SD of representative data from two monocyte donors run in triplicate (FIG. 15C) Intracellular IκBα expression level within CD14+GD2− monocyte population was determined by flow cytometry and IκBα MFI was normalized to monocyte only control. Mean normalized IκBα MFI±SD and representative from experiments with two monocyte donors run in triplicate. (FIG. 15D) Intracellular IκBα expression level within CD14-GD2+NB population was determined by flow cytometry and IκBα MFI was normalized to NB only control. […] NB luminescence was used to evaluate relative viability of cell line. Results are normalized mean luminescence±SD, n=6 replicates per condition. […] Cells undergoing multiple (2+) divisions were quantified as a percentage of total cells and normalized to NB (0) and Ctrl (1). […]\nMonocytes were directly cultured with wild-type or TNF, TNFR1, TNFR2 KO NB cell lines in ULA plates for 24 hours. Activation of NF-kB in monocytes and NB was measured by flow cytometry and cytokine production measured by ELISA from co-culture supernatant. […] Luminescence was measured using a TECAN Spark plate reader (TECAN). […]"}},
  "data": [
    {"substance": "etanercept", "values": [
      {"measurement": "sTNFα production", "setting": "sTNFα production; CHLA-255 + monocytes, 10 μg/mL etanercept, vs IgG control (FIG. 15A)", "value": "almost entirely blocked"},
      {"measurement": "TNFα level in co-culture supernatant", "setting": "sTNFα production; SK-N-AS + monocytes, vs IgG control", "value": "decrease"},
      {"measurement": "reversal of IκBα degradation in monocytes", "setting": "[1]; CHLA-255 + monocytes, 24 hours (FIG. 15C)", "value": "complete"},
      {"measurement": "IκBα levels in monocytes", "setting": "[1]; SK-N-AS + monocytes, 24 hours", "value": "increasing monocyte levels of IκBα"},
      {"measurement": "reduction of monocyte-induced increase in NB cells undergoing multiple divisions", "setting": "CHLA-255", "value": 56, "unit": "%"}
    ]}
  ]
}
